Patent US9833497B2, “Human originated EGF domain proteins and use of the same” (CHENGDU SOURCEBIO LIMITED-LIABILITY COMPANY, priority 2013, dated 2017)

Experiments:
[1] = Silver staining detection of endotoxin (LPS) hydrolysis; format: biochemical; conditions: E. coli EH100 LPS incubated overnight with protein, FIG. 28
Description: 1. The E. coli EH100 LPS (Sigma) samples were respectively incubated with the obtained human-originated EGF domain proteins (PRT1 to PRT1498 in Table 1) such as the recombination protein hF VII-EGF1, etc.; and the control group was the LPS sample incubated with TB S buffer. The incubation lasted overnight. Then, the centrifugation was performed to collect the pellet.
2. The 1×loading buffer for LPS (0.05 mol/L Tris-HCl, containing 10 g/L SDS, 100 g/L sucrose, 0.5% β-mercaptoethanol, 10 mg/L Bromophenol Blue, pH 6.8) was mixed with the sample of the treated pellet and incubated on a metal bath at 100° C. for 5 min.
3. 15% separating gel (containing 4 mol/L urea, Bio-Rad with a thickness of 1.0 mm, the detailed composition as follows: 1.15 mL of deionized water, 2.5 mL of 30% acrylamide, 1.3 mL of 1.5 mol/L Tris-HCl (pH 8.8, containing 10% SDS), 50 μl of 10% ammonium persulfate, 4 μl of TEMED) was mixed well and prepared. The top of the separating gel was overlaid with water.
4. 5% stacking gel was prepared as follows: 1.42 mL of deionized water, 0.33 mL of 30% acrylamide, 0.25 mL of 1 mol/L Tris-HCl (pH 6.8, containing 10% SDS), 20 μL of 10% ammonium persulfate, 2 μL of TEMED) were mixed well and poured. A ten-well comb was quickly inserted.
5. After the gel was prepared, the samples were loaded. Then, the gel was run at a voltage of 120 V to separate the samples. […]

Citrobacter diversus = test: MIC against Gram-negative bacteria: Citrobacter diversus; format: cell-based; conditions: Citrobacter diversus; 96-well plate, 5×10^5 CFU/mL, 37° C., 10 h
In short: (§1)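 LB broth cultures at McFarland 0.5, spun down, resuspended, diluted to 5×10^5 CFU/mL final. Two-fold serial dilutions of purified human EGF domain proteins, triplicate. 37° C, 175 rpm shaking. Endpoint: no visible growth.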

Aeromonas hydrophila = test: MIC against Gram-negative bacteria: Aeromonas hydrophila; format: cell-based; conditions: Aeromonas hydrophila; 96-well plate, 5×10^5 CFU/mL, 37° C., 10 h
In short: as §1

Klebsiella pneumonia = test: MIC against Gram-negative bacteria: Klebsiella pneumonia; format: cell-based; conditions: Klebsiella pneumonia; 96-well plate, 5×10^5 CFU/mL, 37° C., 10 h
In short: as §1

Serratia marcescens = test: MIC against Gram-negative bacteria: Serratia marcescens; format: cell-based; conditions: Serratia marcescens; 96-well plate, 5×10^5 CFU/mL, 37° C., 10 h
In short: as §1

Proteus vulgaris = test: MIC against Gram-negative bacteria: Proteus vulgaris; format: cell-based; conditions: Proteus vulgaris; 96-well plate, 5×10^5 CFU/mL, 37° C., 10 h
In short: as §1

Enterobacter cloacae = test: MIC against Gram-negative bacteria: Enterobacter cloacae; format: cell-based; conditions: Enterobacter cloacae; 96-well plate, 5×10^5 CFU/mL, 37° C., 10 h
In short: as §1

Proteus mirabilis = test: MIC against Gram-negative bacteria: Proteus mirabilis; format: cell-based; conditions: Proteus mirabilis; 96-well plate, 5×10^5 CFU/mL, 37° C., 10 h
In short: as §1

E. coli BL21 = test: MIC against Gram-negative bacteria: E. coli BL21; format: cell-based; conditions: E. coli BL21; 96-well plate, 5×10^5 CFU/mL, 37° C., 10 h
In short: as §1

E. coli DH5α = test: Antibacterial activity: MIC and growth curve against E. coli DH5α in 96-well plate; format: cell-based
In short: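 MIC taken as lowest protein level with no bacterial growth, tracked by A600 every 30 min during 37 °C, 175 rpm culture. Two-fold protein series 50-12.5 μg/mL final, triplicate wells, against 5×10^5 CFU/mL of LB-washed mid-log cells.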

Moraxella catarrhalis = test: MIC against Gram-negative bacteria: Moraxella catarrhalis; format: cell-based; conditions: Moraxella catarrhalis; 96-well plate, 5×10^5 CFU/mL, 37° C., 10 h
In short: as §1

Pseudomonas aeruginosa = test: MIC against Gram-negative bacteria: Pseudomonas aeruginosa; format: cell-based; conditions: Pseudomonas aeruginosa; 96-well plate, 5×10^5 CFU/mL, 37° C., 10 h
In short: as §1

hF VII-EGF1: human coagulation factor VII-EGF1 domain protein, molecular weight about 3.9 kD, recombinant, released from RFP fusion by rTEV (DGDQCASSPCQNGGSCKDQLQSYICFCLPAFEGRNCE; listed as Homo sapiens)
eliminates the majority of LPS: hydrolysis of LPS (LPS band in silver staining) [1]
25 µg/mL: MIC (μg/mL) K. pneumonia (Klebsiella pneumonia) | MIC (μg/mL) P. mirabilis (Proteus mirabilis) | MIC (μg/mL) M. catarrhalis (Moraxella catarrhalis) | MIC (μg/mL) P. aeruginosa (Pseudomonas aeruginosa)
significant inhibitory effect: inhibitory effect on the growth of E. coli DH5α (E. coli DH5α; growth curve (OD 600 nm), FIG. 27 / Table 2)
12.5 µg/mL: MIC (μg/mL) C. diversus (Citrobacter diversus) | MIC (μg/mL) A. hydrophila (Aeromonas hydrophila) | MIC (μg/mL) S. marcescens (Serratia marcescens) | MIC (μg/mL) P. vulgaris (Proteus vulgaris) | MIC (μg/mL) E. cloacae (Enterobacter cloacae) | MIC (μg/mL) E. coli BL21 (E. coli BL21) | MIC (minimal inhibitory concentration) (E. coli DH5α; E. coli DH5α, 5×10^5 CFU/mL, after 8 h of cultivation at 37° C.) | MIC (E. coli DH5α; minimal inhibitory concentration against E. coli DH5α, 96-well plate, 5×10^5 CFU/mL, 37° C., judged after 8 h)
